Data published in US10729643B2, “Methods for administration and methods for treating cardiovascular diseases with resiniferatoxin” (priority 2013, dated 2020).
“Also recorded” adds a separate entry of the source.

Assays:
[1] = test system: IL-1 β; test: Cardiac inflammatory cytokine IL-1β levels after MI; format: in vivo, rat; details: epicardial RTX during MI; 1 day or 1 week after MI
From the text: (§1) This example illustrates local anti-inflammatory effects of RTX in the infarcted heart. Myocardial ischemia causes the production and release of several metabolites including bradykinin, prostaglandins and protons that stimulate cardiac sympathetic afferent nerve endings leading to increases in BP, HR and sympathetic nerve activity. As cardiac TRPV1-expressing sympathetic afferents also subserve a “dual sensory-efferent” function and release pro-inflammatory neuropeptides, we hypothesized that plasma extravasation and cardiac neuroinflammation follows myocardial ischemia. […] Inflammation in the infarct area may be due to tissue death whereas in peri-infarct and remote areas may be due to cardiac sympathetic afferent mediated neuroinflammation. This may explain why RTX prevented cardiac inflammation in non-infarct areas to a greater extent than in the infarct area.

[2] = test system: infarcted heart / CSAR activation; test: Cardiac plasma extravasation (Evans Blue area); format: in vivo, rat
From the text: as §1

[3] = test system: cardiac sympathetic afferent reflex (CSAR); test: CSAR activation: cardiovascular and sympathetic responses to epicardial capsaicin or bradykinin; format: in vivo, rat; details: for cardiovascular responses to acute epicardial application of capsaicin and bradykinin: sham rats
Protocol: (§2) In order to desensitize cardiac sympathetic afferents in rats, resiniferatoxin (RTX, 1 mg; Sigma Aldrich) was dissolved in 2 ml of ethanol and mixed with 18 ml of Tween in isotonic saline. RTX (50 μg/ml) was applied twice on the entire left and right ventricles with a swab just prior to coronary ligation. The dose of RTX was determined by preliminary experiments in which we found nearly complete ablation of TRPV1-expressing cardiac nerve endings on the surface of the rat heart for more than 10 weeks. Rat surgery was performed 9-11 weeks post-MI. Rats were anesthetized with urethane (800 mg/kg ip) and α-chloralose (40 mg/kg ip). Renal sympathetic nerve activity (RSNA) and cardiac sympathetic nerve activity (CSNA) were recorded for evaluating basal renal and cardiac sympathetic tone.
In another parallel set of experiments, we further confirmed the efficiency of RTX-induced TRPV1-expressing CSAR afferent ablation functionally by epicardial application of capsaicin and bradykinin (10 μg/ml) in sham+RTX rats treated with various doses (0.5 μg/ml, 5 μg/ml and 50 μg/ml) and at various time points (1 week, 4-6 weeks, 9-11 weeks and 6 months after RTX). […] Therefore, a higher dose greater than 5 μg/ml should be used for epicardial administration.
To determine activation of the CSAR, epicardial application of capsaicin and bradykinin was used to effectively stimulate the cardiac sympathetic afferents (Zahner et al. J. Physiol. 2003; 551:515-523). The time interval between capsaicin and bradykinin was about 15-20 min to allow the arterial pressure (AP), heart rate (HR) and renal sympathetic nerve activity (RSNA) to return to, and stabilize at their control levels.

[4] = target: T1, TRPV1-expressing cardiac afferents (Rattus norvegicus, UniProt O35433); test: TRPV1 immunofluorescence in cardiac nerve endings after epicardial RTX; format: in vivo
T1 construct: from tissue; host or cells: cardiac (epicardial) nerve endings of male Sprague-Dawley rats, in vivo
Protocol: as §2
More specifically, we examined TRPV1 protein expression in cardiac nerve endings from vehicle and RTX-treated rats using immunofluorescence. Experiments were performed on male Sprague-Dawley rats weighing −400 to −500 g. […] Cardiac function in all experimental animals was measured 2 and 6 weeks after MI by echocardiography (VEVO 770, Visual Sonics, Inc.) as described in (Wang et al., J. Appl. Physiol. 2010; 108:1365-1375; Wang et al. 2, Am. J. Physiol. Regul. Integr. Comp. Physiol. 2012; 320:R1260-R1270; and Wang et al. 3, J. Physiol. 2010; 588:5033-5047). […]

[5] = test system: rats; details: subcutaneous and epidural administration; cited from earlier work
[6] = test system: non-infarcted LV and IVS walls of sham and CHF rats; test: Cardiac fibrosis: picrosirius red staining and western blot of fibrotic markers; format: in vivo, rat
From the text: This example illustrates the effects of RTX on cardiac fibrosis in sham and CHF rats. Considering that RTX-mediated reduction in LVEDP in CHF rats may be related to an improvement in cardiac compliance, we further evaluated cardiac fibrosis using picrosirus red staining and protein expression of two fibrotic markers (a smooth muscle actin and fibronectin) as well as their upstream activator, transforming growth factor (TGF) β receptor I in the non-infarcted LV and inter-ventricular septum (IVS) walls from sham and CHF rats treated with either vehicle or RTX. For histopathology, the rat heart was fixed in 10% phosphate buffered formalin, embedded in paraffin, and cut into 10 μm serial sections from apex to base. Picrosirius red staining was performed to detect myocardial fibrosis. Immunohistochemistry staining of cleaved caspase 3 (CC3) was also performed in paraffin sections from the same heart tissues which were used for picrosirius red staining experiments.

[7] = test system: nerve endings in the skin; details: topical administration at the nerve endings in the skin; cited from earlier work
[8] = test system: post MI rats; test: Long-term survival of post MI rats; format: in vivo, rat
From the text: This example illustrates effects of RTX on the long-term survival rate of post MI rats. […] Over a 6 month period over 50% of vehicle—treated rats died. This contrasts with under 20% of RTX treated—rats.

[9] = sham and CHF rats, 9-11 weeks after epicardial RTX 50 μg/ml

T1 sequence (O35433 whole entry): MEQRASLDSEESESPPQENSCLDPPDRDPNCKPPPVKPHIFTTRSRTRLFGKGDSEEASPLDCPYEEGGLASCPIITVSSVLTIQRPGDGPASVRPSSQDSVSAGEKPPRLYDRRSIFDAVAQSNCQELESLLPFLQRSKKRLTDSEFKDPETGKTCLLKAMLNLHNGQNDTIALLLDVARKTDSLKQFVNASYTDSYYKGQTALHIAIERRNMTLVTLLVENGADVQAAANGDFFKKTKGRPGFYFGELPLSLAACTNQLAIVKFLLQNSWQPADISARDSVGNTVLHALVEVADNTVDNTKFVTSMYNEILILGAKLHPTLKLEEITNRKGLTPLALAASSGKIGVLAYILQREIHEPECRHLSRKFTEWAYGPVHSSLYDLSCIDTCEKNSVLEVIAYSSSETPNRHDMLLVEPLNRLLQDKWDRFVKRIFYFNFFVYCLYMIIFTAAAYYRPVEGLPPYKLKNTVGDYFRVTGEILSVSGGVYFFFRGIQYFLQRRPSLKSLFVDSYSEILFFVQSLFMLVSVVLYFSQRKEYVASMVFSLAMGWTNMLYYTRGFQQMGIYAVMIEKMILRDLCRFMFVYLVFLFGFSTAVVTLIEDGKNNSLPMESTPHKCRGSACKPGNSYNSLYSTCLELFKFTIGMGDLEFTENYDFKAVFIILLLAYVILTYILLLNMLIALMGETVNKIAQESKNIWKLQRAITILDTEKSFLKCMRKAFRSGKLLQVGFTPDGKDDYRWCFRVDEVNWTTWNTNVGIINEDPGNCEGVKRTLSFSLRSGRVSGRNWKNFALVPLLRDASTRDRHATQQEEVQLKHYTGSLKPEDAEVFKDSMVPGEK

C=C(C)[C@]12C[C@@H](C)[C@@]34O[C@](Cc5ccccc5)(O[C@@H]1[C@@H]3C=C(COC(=O)Cc1ccc(O)c(OC)c1)C[C@]1(O)C(=O)C(C)=C[C@@H]41)O2 [RTX, resiniferatoxin]
increased IL-1 β expression in peri-infarct and remote areas post MI [1]: markedly attenuated
increased IL-1 β level in the infarct area [1]: partially prevented
plasma extravasation following CSAR activation by epicardial capsaicin or bradykinin ([2]; chronic CSAR denervation by RTX): largely be abolished
cardiac plasma extravasation after MI (Evans Blue area) ([2]; epicardial RTX at the time of coronary ligation, day 1 to more than 1 week after MI): almost completely abolished
sham rats showing partial recovery of the cardiovascular responses to capsaicin and bradykinin ([3]; 10 weeks after epicardial RTX 5 μg/ml, preliminary experiment): 40%
duration for which CSAR was abolished ([3]; RTX 50 μg/ml applied to the surface of heart): 9-11 weeks
sensitivity to capsaicin and bradykinin ([3]; all rats, 10 weeks after epicardial RTX 50 μg/ml): still insensitive
cardiovascular responses to capsaicin and bradykinin / CSAR sensitivity at 6 months after RTX ([3]; epicardial RTX 50 μg/ml, 6 months): recovery of CSAR sensitivity; also recorded: largely recovered
duration for which cardiovascular responses to capsaicin and bradykinin were abolished ([3]; epicardial RTX 50 μg/ml, time course experiments): more than 10 weeks
bradykinin-induced CSAR activation [3, 9]: greatly attenuated
cardiovascular and sympathetic activation (MAP, HR, RSNA) in response to epicardial capsaicin [3, 9]: almost completely abolished
cardiovascular responses to acute epicardial application of capsaicin and bradykinin ([3]; 1 week after epicardial RTX 5 μg/ml): largely abolished
cardiovascular responses to acute epicardial application of capsaicin and bradykinin ([3]; 1 week after epicardial RTX 50 μ/ml): largely abolished
TRPV1 immunoreactivity in the epicardium ([4]; 1 week, 4-6 weeks and 9-11 weeks after epicardial RTX 50 μg/ml): absent
duration of nearly complete ablation of TRPV1-expressing cardiac nerve endings on the surface of the rat heart ([4]; epicardial RTX 50 μg/ml, preliminary experiments): more than 10 weeks
duration of thermal analgesia with no restoration of pain sensitivity [5]: over 7 days
picrosirus red staining, alpha smooth muscle actin, fibronectin and TGF β receptor I expression ([6]; CHF rats): reduced
picrosirus red staining, fibrotic markers and TGF β receptor I ([6]; sham rats): did not cause any significant change
sensitivity to chemical pain stimulation [7]: long-lasting insensitivity
long-term (6 months) survival rates ([8]; CHF rats, epicardial RTX 50 μg/ml at the time of coronary ligation): markedly improved
rats that died over a 6 month period ([8]; RTX treated post MI rats (vehicle: over 50%)): under 20%
